Results on 6 substances are retold here after paper PMC8273887 (Journal of Medicinal Chemistry, 2021).

As a reminder, the EC50 is the midpoint of the concentration-response curve. The half-life is the time needed for the level to fall by half in the phase considered.

“Also recorded” adds a separate entry of the source. Bridge positions count the residues as written; N and C are the ends. Ends that are not written are not given here. A value given as a limit tells only on which side of the number the result lay.

One data set deals with T1, CXCR4 (Homo sapiens, UniProt P61073).
T1 construct: expressed in transfected cells; host or cells: COS-7 (African green monkey), transient co-transfection with GαΔ6qi4myr
T1 sequence (P61073 whole entry): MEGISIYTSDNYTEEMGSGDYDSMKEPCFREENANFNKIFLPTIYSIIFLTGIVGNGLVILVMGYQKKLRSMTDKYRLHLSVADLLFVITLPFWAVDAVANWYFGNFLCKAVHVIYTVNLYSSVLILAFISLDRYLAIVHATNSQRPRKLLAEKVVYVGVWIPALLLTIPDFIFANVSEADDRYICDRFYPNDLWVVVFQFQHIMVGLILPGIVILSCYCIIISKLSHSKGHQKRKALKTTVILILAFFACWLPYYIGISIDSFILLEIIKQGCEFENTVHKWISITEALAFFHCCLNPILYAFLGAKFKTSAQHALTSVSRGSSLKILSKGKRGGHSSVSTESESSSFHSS
As to the kind of experiment: Inositol 1 phosphate (IP1) accumulation assay (HTRF) in COS-7 cells transfected with CXCR4. The settings on record: COS-7 transiently co-transfected with CXCR4-eYFP and chimeric GαΔ6qi4myr; stimulation 1 h, 37 °C, triplicate; HTRF; n ≥ 2 independent experiments; read-out: EC50 (CXCR4 activation, IP1 accumulation). The class given is cell-based. The source says: CXCR4 is a member of the G protein-coupled receptor (GPCR) family[58] and proposed as a target receptor for TFF3 to mediate wound healing.[30],[39] We therefore pharmacologically characterized TFF3(C^57Acm) and TFF3 homodimer at CXCR4. We used a chimeric Gαiq protein to switch the pathway to the Gαq signaling, which leads to the activation of the phospholipase and allows measurement of CXCR4 activation through the production of inositol 1 phosphate (IP1).[61]−[63] We measured IP1 accumulation upon stimulation with TFF3(C^57Acm) and TFF3 homodimer in fibroblast-like COS-7 cells transiently transfected with CXCR4.[58] This is a competitive immunoassay, based on the HTRF technology, where native IP1 produced by cells compete with labeled IP1 (acceptor) for binding to anti-IP1-cryptate (donor). The specific signal (i.e., Förster resonance energy transfer, FRET) is inversely proportional to the concentration of IP1 in the sample. The calculation of the fluorescence ratio eliminates possible medium interferences.[64]
COS-7 cells (fibroblast-like cells from African green monkey) were transiently co-transfected with the CXCR4 C-terminally fused to eYFP in pVitro2 vector and the untagged chimeric G protein GαΔ6qi4myr in pcDNA3.1 plasmid using Metafectene Pro according to manufacturer’s protocol. The cells were cultured in DMEM with higher glucose and supplemented with 10% FCS without any antibiotics at 37 °C and 5% CO2 in 95% humidity. Cisbio IP-One Gq assay kit was used according to previous description with minor modifications to measure activity.[80] Briefly, a standard curve was prepared in HBSS (Hanks’ balanced salt solution) with 20 mM LiCl to determine the linear range of the assay and 10 000 cells/well were cultured overnight in a 384-well flat white plate (Greiner Bio-one GmbH, Frickenhausen, Germany). TFF3 and its homodimer as well as CXCL12 were diluted in HBSS containing 20 mM LiCl. Stimulation was carried out for 1 h in triplicate at 37 °C. Subsequently, 3 μL of IP1-d2 and 3 μL of Ab-cryptate in lysis buffer were added to the wells and incubated on a tumbler for 60 min at 25 °C. Fluorescence was then measured at 620 and 665 nm and the HTRF (homogeneous time-resolved fluorescence) ratio (665/620 nm) was calculated. Data analysis was performed with Prism (version 7, GraphPad, La Jolla). Tested compounds were normalized to CXCL12 wild type, with the highest HTRF ratio set to 0% and the lowest HTRF ratio set to 100% response. […] The final concentration range of 10^–12 to 10^–5 M to CXCL12 and 1 or 10 μM to TFF3(C^57Acm) and TFF3 homodimer was achieved by adding the compounds from a threefold concentrated stock solution.
A general note: In TR-FRET formats the signal depends on donor and acceptor labels being close together.

In the next data set the test system is pepsin. As to the kind of experiment: simulated gastric fluid (SGF, containing pepsin, pH 1.3). The settings on record: porcine, 37 °C, up to 24 h.
The test system of the next data set is porcine pancreatin. As to the kind of experiment: simulated intestinal fluid (SIF, containing pancreatic enzymes, pH 6.8). The settings on record: 37 °C, up to 24 h.
The test system of another data set is trypsin. As to the kind of experiment: trypsin.
A short description of data set [1]: Stability in simulated gastric fluid (SGF). It counts as in vitro ADME, porcine. The procedure: (§1) We exposed TFF3(C^57Acm) and TFF3 homodimer to simulated gastric fluid (SGF, containing pepsin, pH 1.3) and simulated intestinal fluid (SIF, containing pancreatic enzymes, pH 6.8), and monitored the mixture over 24 h by analytical RP-HPLC and MS. The N- and C-termini of TFF3 and its homodimer were readily truncated in both SGF and SIF (Figure 4A,B). In SGF, TFF3 was cleaved at Leu^6/Ser^7 followed by cleavage at Glu^54/Ala^55 (t1/2 < 5 min). In SIF, TFF3 was cleaved first at Thr^58/Phe^59 followed by cleavage at Leu^6/Ser^7, Glu^56/Cys^57, and Ala^55/Glu^56 (t1/2 < 5 min). TFF3 homodimer, in both SGF (t1/2 ∼ 40 min) and SIF (t1/2 < 5 min), was first broken down to monomeric TFF3 through simultaneous cleavage at Leu^6 and Glu^54 or Ala^55, eventually leading to the same metabolites as TFF3 (Figure 4B).
(§2) Simulated gastric fluid (SGF) was prepared by dissolving 20 mg of NaCl and 8 mg of pepsin in 70 μL of concentrated HCl (32%), and the volume was diluted to 10 mL with Milli-Q water (pH 1.3).[76],[77] Simulated intestinal fluid (SIF) was prepared by dissolving 68 mg of KH2PO4 in 500 μL of Milli-Q water followed by the addition of 800 μL of 0.2 M NaOH and 100 mg of porcine pancreatin, and the volume was adjusted to 10 mL with Milli-Q water (pH 6.8).[76],[77] Peptide stock solution (1 mM; 15 μL) was added to SGF (285 μL) or SIF (285 μL) and incubated at 37 °C. Samples (30 μL) from SGF and SIF were taken at 0, 5, 15, and 30 min and 1, 2, 4, 8, and 24 h timepoints and subsequently quenched with 30 μL of 0.2 M Na2CO3 (SGF) or 30 μL of 5% aqueous TFA (SIF). The samples were analyzed by analytical RP-HPLC (30 μL) and/or LC-MS (20 μL). The amount of peptide remaining was determined by measuring the peak area and expressing it as a % of the peak area at time 0. Peptide half-life (t1/2) was determined from the peptide degradation profiles using an exponential one-phase decay fit in Prism (version 7, GraphPad, La Jolla). LC-MS analysis was performed in a Q-Star Pulsar mass spectrometer (SCIEX, Ontario, Canada), and the raw data spectra were processed using the peptide reconstruction tool in the BioAnalyst software to identify the mass of the metabolites. The stability of the disulfide bonds was assessed through incubation of the peptides (10 μM) with 10 equiv of reduced glutathione (GSH; 100 μM) in sodium phosphate (50 mM) buffer at pH 7.2. Samples were taken at timepoints 0, 4, 8, and 24 h, quenched by adding 10% TFA, and analyzed by analytical RP-HPLC using an analytical C3 column (Agilent Zorbax SB-C3, 5 μm, 2.1 mm × 250 mm, 300 Å).

The next data set deals with SH-SY5Y cells. Put plainly: Antiapoptotic assay (etoposide-induced cell death, caspase-3/7 activity). It counts as cell-based, human. The settings on record: etoposide 10 μM and peptide 10 μM added at the same time, caspase-3/7 activity after 6 h, n ≥ 3 independent experiments.
Data set [2] is described as follows: Stability in simulated intestinal fluid (SIF). The class given is in vitro ADME. The following applies: pig, simulated intestinal fluid (SIF) with porcine pancreatin. The procedure:
as §1, §2

Protocol for SH-SY5Y cells: (A) Cell death was induced with etoposide (10 μM), and cells were treated with 10 μM of TFF3. Etoposide and TFF3 were added at the same time. Caspase-3/7 activity was measured after 6 h. […] Z-DEVD-FMK (50 μM; caspase-3 inhibitor) was used as the positive control. E: etoposide, E + C3I: etoposide + caspase-3 inhibitor. One-way analysis of variance (ANOVA) followed by Dunnett correction was performed to assess differences between treated cells and etoposide only. *p < 0.05, **p < 0.01.
SH-SY5Y cells were seeded (13–15 × 10^3 cells/well) in 96-well microplates in DMEM with 10% (v/v) fetal calf serum (FCS; Gibco), 2 mM L-glutamine, and 100 units/mL penicillin/streptomycin. The media was replaced with low riboflavin, complete Ham’s F12 medium with 10% (v/v) fetal calf serum, 2 mM L-glutamine, and 100 units/mL penicillin/streptomycin before the live-cell imaging. Cells were treated with the etoposide or the caspase-3 inhibitor or TFF3(C^57Acm) or TFF3 homodimer in the presence of IncuCyte caspase-3/7 green apoptosis reagent. Data were acquired using an IncuCyte ZOOM instrument with standard scan type setting (4 images per well) every 2 h for 48 h.

In the case of “CXCL12: natural CXCR4 ligand; recombinant human CXCL12 from E. coli with additional N-terminal methionine; positive control [reference compound]”, the EC50 with CXCR4 is 5.9 nM.

Consider “EEYVGLSANQCAVPAKDRVDCGYPHVTPKECNNRGCCFDSRIPGVPWCFKPLQEAEC(Acm)TF”, for which the cleaved bond entry is recorded as “Leu6-Ser7, first_seen; also recorded: Glu54-Ala55” in the data set with pepsin and “Thr58-Phe59, first_seen; also recorded: Leu6-Ser7; also recorded: Glu56-Cys57; also recorded: Ala55-Glu56” in the data set with porcine pancreatin.

Turning to “QCAVPAKDRVDCGYPHVTPKECNNRGCCFDSRIPGVPWCFK”, the not cleaved result with pepsin is “stable in SGF for 24 h”. In the data set on trypsin, the cleaved bond result was “cleavages at Lys^16, Arg^18, and Arg^41; also recorded: Arg41-Ile42”; the fragment found result is given as “Glu^30-Arg^34; also recorded: Ile^42-Lys^50”.

“SANQCAVPAKDRVDCGYPHVTPKECNNRGCCFDSRIPGVPWCFKPLQE”: in the data set on pepsin, the not cleaved result is reported as “stable in SGF with a half-life over 24 h”.

Regarding “SANQCAVPAKDRVDCGYPHVTPKECNNRGCCFDSRIPGVPWCFKPLQE-NH2 (disulfide 5-31, 15-30, 25-42) [TFF3_7-54]”, the “stability in SGF over 24 h (in words)” value in data set [1] (SGF with pepsin, pH 1.3, 37 °C, 24 h, RP-HPLC and MS) was “remained stable”. Moreover, the half-life at 50 μM in data set [1] (simulated gastric fluid (SGF) with pepsin, pH 1.3, 15 μL of 1 mM stock in 285 μL, 37 °C, monitored over 24 h, RP-HPLC/LC-MS, read-out: half-life in SGF) was over 24 h; in data set [2] (pH 6.8, 15 μL of 1 mM stock in 285 μL, 37 °C, monitored over 24 h, RP-HPLC/LC-MS, read-out: half-life in SIF) it was over 24 h. For the same substance, the “reduction of etoposide-induced cell death (caspase-3/7 active objects)” value in the data set on SH-SY5Y cells is “active in the anti-apoptosis assay, equivalent to TFF3 and TFF3 homodimer”. The metabolised at 24 h, 50 μM in data set [2] (pH 6.8, 37 °C, 24 h, RP-HPLC/MS, read-out: degradation in SIF within 24 h) was about 25%.

As to “S^7ANQCAVPAKDRVDCGYPHVTPKECNNRGCCFDSRIPGVPWCFKPLQEA^55”, the not cleaved result with porcine pancreatin is given as “remained stable even after 24 h”.
